Assay results: PubChem BioAssay (NCI)
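How tested: cells in 96-well plates exposed to compound for 48 hours at five concentrations. GI50: concentration for 50% inhibition of growth. TGI marks complete inhibition of growth.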

How the values were obtained:
Experiment in all cases: DTP human tumour cell line panel, 48 h
[1] = test system: NCI-H460 lung
[2] = test system: M14 melanoma
[3] = test system: HOP-62 NSCLC
[4] = test system: SK-MEL-5 melanoma
[5] = test system: MCF7 breast
[6] = test system: U251 CNS
[7] = test system: MOLT-4 leukemia
[8] = test system: KM12 colon
[9] = test system: RPMI-8226 leukemia
[10] = test system: UACC-257 melanoma
[11] = test system: EKVX NSCLC
[12] = test system: LOX IMVI melanoma
[13] = test system: RXF 393 renal
[14] = test system: 786-0 renal
[15] = test system: NCI-H23 lung
[16] = test system: HCT-116 colon
[17] = test system: NCI-H522 lung
[18] = test system: SNB-19 CNS
[19] = test system: NCI-H226 lung
[20] = test system: SK-OV-3 ovarian
[21] = test system: NCI/ADR-RES ovarian
[22] = test system: OVCAR-5 ovarian
[23] = test system: HS 578T breast
[24] = test system: OVCAR-8 ovarian
[25] = test system: UO-31 renal
[26] = test system: MDA-MB-231 breast
[27] = test system: A498 renal
[28] = test system: MALME-3M melanoma
[29] = test system: COLO 205 colon
[30] = test system: HCT-15 colon
[31] = test system: MDA-MB-435
[32] = test system: SR leukemia
[33] = test system: HOP-92 NSCLC
[34] = test system: CCRF-CEM leukemia
[35] = test system: PC-3 prostate
[36] = test system: SNB-75 CNS
[37] = test system: OVCAR-4 ovarian
[38] = test system: ACHN renal
[39] = test system: IGROV1 ovarian
[40] = test system: HL-60(TB) leukemia
[41] = test system: CAKI-1 renal
[42] = test system: BT-549 breast
[43] = test system: T-47D breast
[44] = test system: SN12C renal
[45] = test system: HT29 colon
[46] = test system: SW-620 colon
[47] = test system: UACC-62 melanoma
[48] = test system: HCC-2998 colon
[49] = test system: K-562 leukemia
[50] = test system: A549 NSCLC
[51] = test system: SF-295 CNS
[52] = test system: SF-268 CNS
[53] = test system: DU-145 prostate
[54] = test system: SK-MEL-28 melanoma
[55] = test system: SF-539 CNS
[56] = test system: TK-10 renal

In the case of `C#C[C@]1(O)CC[C@H]2[C@@H]3CC=C4c5sc(NCc6ccccc6)nc5CC[C@]4(C)[C@H]3CC[C@@]21C`, the GI50 [1] is reported as 4.66 µM, the TGI [1] is reported as 16.6 µM and the GI50 [2] is reported as 2.94 µM. For the same compound, the TGI [2] was 10.1 µM, the GI50 [3] was 2.05 µM and the TGI [3] was 4.94 µM. For the same compound, the GI50 [4] was 2.91 µM, the TGI [4] was 8.8 µM and the GI50 [5] was 3.31 µM. It also gave a TGI [5] of 10 µM, a GI50 [6] of 1.8 µM and a TGI [6] of 5.8 µM. For the same compound, the GI50 [7] was 2.66 µM, the TGI [7] was 8.69 µM and the GI50 [8] was 3.18 µM. The TGI [8] was 10.8 µM, the GI50 [9] was 1.65 µM and the TGI [9] was 4.53 µM. For the same compound, the GI50 [10] was 1.82 µM, the TGI [10] was 3.72 µM and the GI50 [11] was 4.16 µM. For the same compound, the TGI [11] was 16.3 µM, the GI50 [12] was 2.19 µM and the TGI [12] was 4.93 µM. It also gave a GI50 [13] of 1.23 µM, a TGI [13] of 3.17 µM and a GI50 [14] of 1.73 µM. The TGI [14] was 3.47 µM, the GI50 [15] was 4.4 µM and the TGI [15] was 20.8 µM. The GI50 [16] was 3.37 µM, the TGI [16] was 11.5 µM and the GI50 [17] was 2.62 µM. The TGI [17] was 8.35 µM, the GI50 [18] was 4.01 µM and the TGI [18] was 18 µM. It also gave a GI50 [19] of 11.3 µM, a TGI [19] of 37.1 µM and a GI50 [20] of 2.08 µM. For the same compound, the TGI [20] was 4.41 µM, the GI50 [21] was 3.87 µM and the TGI [21] was 43.9 µM. For the same compound, the GI50 [22] was 4.55 µM, the TGI [22] was 17.6 µM and the GI50 [23] was 2.02 µM. It also gave a TGI [23] of 6.42 µM, a GI50 [24] of 3.78 µM and a TGI [24] of 14.4 µM. For the same compound, the GI50 [25] was 2.21 µM, the TGI [25] was 5.41 µM and the GI50 [26] was 2.64 µM. For the same compound, the TGI [26] was 7.07 µM, the GI50 [27] was 1.72 µM and the TGI [27] was 4.24 µM. For the same compound, the GI50 [28] was 2.14 µM, the TGI [28] was 5.38 µM and the GI50 [29] was 1.92 µM. It also gave a TGI [29] of 3.62 µM, a GI50 [30] of 1.7 µM and a TGI [30] of 4.15 µM. For the same compound, the GI50 [31] was 3.73 µM, the TGI [31] was 18.7 µM and the GI50 [32] was 3.16 µM. The TGI [32] was 29.6 µM, the GI50 [33] was 1.56 µM and the TGI [33] was 7.34 µM. The GI50 [34] was 2.94 µM, the TGI [34] was 9.49 µM and the GI50 [35] was 2.29 µM. It also gave a TGI [35] of 6.77 µM, a GI50 [36] of 1.89 µM and a GI50 [37] of 8.48 µM. The TGI [37] was 32.9 µM, the GI50 [38] was 3.92 µM and the TGI [38] was 15.9 µM. The GI50 [39] was 5.83 µM, the TGI [39] was 23.3 µM and the GI50 [40] was 3.01 µM. For the same compound, the TGI [40] was 9.19 µM, the GI50 [41] was 2.59 µM and the TGI [41] was 8.04 µM. The GI50 [42] was 2.82 µM, the TGI [42] was 7.27 µM and the GI50 [43] was 2.76 µM. It also gave a TGI [43] of 16.6 µM, a GI50 [44] of 3.52 µM and a TGI [44] of 16.7 µM. For the same compound, the GI50 [45] was 1.68 µM, the TGI [45] was 3.54 µM and the GI50 [46] was 2.22 µM. It also gave a TGI [46] of 4.68 µM, a GI50 [47] of 1.97 µM and a TGI [47] of 4.49 µM. It also gave a GI50 [48] of 4.05 µM, a TGI [48] of 14.1 µM and a GI50 [49] of 3.23 µM. The TGI [49] was over 100 µM, the GI50 [50] was 3.48 µM and the TGI [50] was 13.1 µM. For the same compound, the GI50 [51] was 1.94 µM, the TGI [51] was 4.08 µM and the GI50 [52] was 3.85 µM. For the same compound, the TGI [52] was 16.4 µM, the GI50 [53] was 7.54 µM and the TGI [53] was 40.5 µM. For the same compound, the GI50 [54] was 2.31 µM, the TGI [54] was 7.2 µM and the GI50 [55] was 1.4 µM. The TGI [55] was 3.18 µM, the GI50 [56] was 5.48 µM and the TGI [56] was 18.5 µM.
